According to patent publication US20240208992A1, “MACROCYCLES AS CFTR MODULATORS” (Idorsia Pharmaceuticals Ltd, priority 2021, published 2024):

Target: human F508del-CFTR (Homo sapiens, UniProt P13569, DEL508-508)
Test: F508del-CFTR cell surface expression (corrector activity), DiscoveRx ß-galactosidase complementation chemiluminescence assay in recombinant U2OS cell line;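 also: U2OS cells co-expressing ProLink-tagged F508del-CFTR and a membrane-anchored enzyme acceptor, where more surface CFTR restores β-galactosidase activity measured by chemiluminescence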
Settings: U2OS cell line, 16h compound incubation; for EC50: EC50, F508del-CFTR cell surface expression, geomean values; for Emax: U2OS, in relation to the Emax of the corrector lumacaftor (=100%), arithmetic mean values

Sequence of human F508del-CFTR (P13569 with tags, fused parts or gaps DEL508-508): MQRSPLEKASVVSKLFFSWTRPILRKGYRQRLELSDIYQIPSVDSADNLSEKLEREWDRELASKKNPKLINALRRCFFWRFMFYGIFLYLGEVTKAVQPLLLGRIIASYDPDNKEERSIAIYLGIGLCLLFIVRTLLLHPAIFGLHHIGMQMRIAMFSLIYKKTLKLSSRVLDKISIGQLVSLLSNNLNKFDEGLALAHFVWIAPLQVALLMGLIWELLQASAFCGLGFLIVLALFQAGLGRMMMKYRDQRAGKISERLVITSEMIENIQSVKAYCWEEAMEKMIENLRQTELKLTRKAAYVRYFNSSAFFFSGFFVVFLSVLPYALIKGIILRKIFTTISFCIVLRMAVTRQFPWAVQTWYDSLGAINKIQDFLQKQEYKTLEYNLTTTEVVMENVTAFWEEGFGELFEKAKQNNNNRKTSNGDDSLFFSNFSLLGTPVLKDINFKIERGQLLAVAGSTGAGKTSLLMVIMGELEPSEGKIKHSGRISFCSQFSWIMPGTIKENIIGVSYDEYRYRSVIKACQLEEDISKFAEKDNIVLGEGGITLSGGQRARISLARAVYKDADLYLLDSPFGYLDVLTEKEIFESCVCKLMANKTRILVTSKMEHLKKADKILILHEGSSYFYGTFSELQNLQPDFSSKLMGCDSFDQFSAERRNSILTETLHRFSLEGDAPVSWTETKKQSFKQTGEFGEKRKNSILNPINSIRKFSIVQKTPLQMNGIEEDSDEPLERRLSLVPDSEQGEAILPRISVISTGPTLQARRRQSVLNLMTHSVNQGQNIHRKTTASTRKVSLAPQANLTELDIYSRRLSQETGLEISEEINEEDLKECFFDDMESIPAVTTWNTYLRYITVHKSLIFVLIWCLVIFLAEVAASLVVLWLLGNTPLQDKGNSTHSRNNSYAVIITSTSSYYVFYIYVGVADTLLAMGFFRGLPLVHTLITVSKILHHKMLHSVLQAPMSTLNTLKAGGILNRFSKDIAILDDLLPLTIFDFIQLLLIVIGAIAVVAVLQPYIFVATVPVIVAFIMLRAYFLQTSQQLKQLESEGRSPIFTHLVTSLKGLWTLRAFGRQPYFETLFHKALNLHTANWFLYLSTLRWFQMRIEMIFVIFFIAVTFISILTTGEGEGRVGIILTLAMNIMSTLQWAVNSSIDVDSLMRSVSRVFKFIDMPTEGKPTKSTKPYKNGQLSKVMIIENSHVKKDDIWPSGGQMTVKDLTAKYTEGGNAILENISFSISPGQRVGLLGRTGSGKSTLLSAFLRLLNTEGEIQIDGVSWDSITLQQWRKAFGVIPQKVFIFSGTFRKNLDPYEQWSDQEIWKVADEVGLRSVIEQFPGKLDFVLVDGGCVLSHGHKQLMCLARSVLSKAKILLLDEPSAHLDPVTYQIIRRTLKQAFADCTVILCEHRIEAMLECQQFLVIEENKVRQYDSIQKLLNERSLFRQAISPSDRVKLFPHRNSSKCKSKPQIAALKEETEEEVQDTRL

Row | EC50 | Emax | SMILES
1 | 721 nM | 102% | COc1cccc2c1C(=O)N[C@H](C(=O)NCCc1cncnc1)CC(=O)N(C)[C@@H](CC(C)C)C(=O)N(CCC1CCCCC1)CC(=O)N[C@H](Cc1ccccc1)CO2 [Example 20, (3R,9S,13S)-3-benzyl-7-(2-cyclohexylethyl)-9-isobutyl-16-methoxy-10-methyl-5,8,11,15-tetraoxo-N-(2-(pyrimidin-5-yl)ethyl)-2,3,4,5,6,7,8,9,10,11,12,13,14,15-tetradecahydrobenzo[p][1]oxa[4,7,10,14]tetraazacycloheptadecine-13-carboxamide]
2 | 350 nM | 108% | COc1cccc2c1C(=O)N[C@H](C(=O)NCCCOC(F)F)CC(=O)N(C)[C@@H](CC(C)C)C(=O)N(CCC1CCCCC1)CC(=O)N[C@H](Cc1ccccc1)CO2 [Example 21, (3R,9S,13S)-3-benzyl-7-(2-cyclohexylethyl)-N-(3-(difluoromethoxy)propyl)-9-isobutyl-16-methoxy-10-methyl-5,8,11,15-tetraoxo-2,3,4,5,6,7,8,9,10,11,12,13,14,15-tetradecahydrobenzo[p][1]oxa[4,7,10,14]tetraazacycloheptadecine-13-carboxamide]
3 | 600 nM | 104% | COCCOCCNC(=O)[C@@H]1CC(=O)N(C)[C@@H](CC(C)C)C(=O)N(CCC2CCCCC2)CC(=O)N[C@H](Cc2ccccc2)COc2cccc(OC)c2C(=O)N1 [Example 22, (3R,9S,13S)-3-benzyl-7-(2-cyclohexylethyl)-9-isobutyl-16-methoxy-N-(2-(2-methoxyethoxy)ethyl)-10-methyl-5,8,11,15-tetraoxo-2,3,4,5,6,7,8,9,10,11,12,13,14,15-tetradecahydrobenzo[p][1]oxa[4,7,10,14]tetraazacycloheptadecine-13-carboxamide]
4 | 439 nM | 140% | CC(C)C[C@H]1C(=O)N2CCCC[C@@H]2C(=O)N[C@H](Cc2ccccc2)COc2ccc3ncn(C)c3c2C(=O)N[C@H](C(=O)NCCc2nc3c(s2)CCC3)CC(=O)N1C [Example 29, (8S,12S,18aR,21R)-21-benzyl-N-(2-(5,6-dihydro-4H-cyclopenta[d]thiazol-2-yl)ethyl)-12-isobutyl-5,11-dimethyl-6,10,13,19-tetraoxo-6,7,8,9,10,11,12,13,16,17,18,18a,19,20,21,22-hexadecahydro-5H,15H-imidazo[4′,5′:5,6]benzo[1,2-p]pyrido[2,1-f][1]oxa[4,7,10,14]tetraazacycloheptadecine-8-carboxamide]

The next lines start with the molecule.

Row | SMILES | EC50 | Emax
5 | CC(C)C[C@H]1C(=O)N(CCC2CCCCC2)CC(=O)N[C@H](Cc2ccccc2)COc2cc3c(cc2C(=O)N[C@H](C(=O)NCCc2ccc4c(c2)OCO4)CC(=O)N1C)OCO3 [Example 2, (7R,13S,17S)-N-(2-(benzo[d][1,3]dioxol-5-yl)ethyl)-7-benzyl-11-(2-cyclohexylethyl)-13-isobutyl-14-methyl-9,12,15,19-tetraoxo-6,7,8,9,10,11,12,13,14,15,16,17,18,19-tetradecahydro-[1,3]dioxolo[4′,5′:4,5]benzo[1,2-p][1]oxa[4,7,10,14]tetraazacycloheptadecine-17-carboxamide] | 110 nM | 150%
6 | COc1cc2c(cc1OC)C(=O)N[C@H](C(=O)NCCc1ccc3c(c1)CCCO3)CC(=O)N(C)[C@@H](CC(C)C)C(=O)N(C)CC(=O)N[C@H](Cc1ccccc1)CO2 [Example 3, (3R,9S,13S)-3-benzyl-N-(2-(chroman-6-yl)ethyl)-9-isobutyl-17,18-dimethoxy-7,10-dimethyl-5,8,11,15-tetraoxo-2,3,4,5,6,7,8,9,10,11,12,13,14,15-tetradecahydrobenzo[p][1]oxa[4,7,10,14]tetraazacycloheptadecine-13-carboxamide] | 816 nM | 151%
7 | COc1cc2c(cc1OC)C(=O)N[C@H](C(=O)NCCc1ccc3ccoc3c1)CC(=O)N(C)[C@@H](CC(C)C)C(=O)N(C)CC(=O)N[C@H](Cc1ccccc1)CO2 [Example 4, (3R,9S,13S)-N-(2-(benzofuran-6-yl)ethyl)-3-benzyl-9-isobutyl-17,18-dimethoxy-7,10-dimethyl-5,8,11,15-tetraoxo-2,3,4,5,6,7,8,9,10,11,12,13,14,15-tetradecahydrobenzo[p][1]oxa[4,7,10,14]tetraazacycloheptadecine-13-carboxamide] | 673 nM | 195%
8 | CN1CC(=O)N[C@H](Cc2ccccc2)COc2cc3c(cc2C(=O)N[C@H](C(=O)NCCc2ccc4c(c2)OCO4)CC(=O)N(C)[C@@H](CC2CCC2)C1=O)OCO3 [Example 7, (7R,13S,17S)-N-(2-(benzo[d][1,3]dioxol-5-yl)ethyl)-7-benzyl-13-(cyclobutylmethyl)-11,14-dimethyl-9,12,15,19-tetraoxo-6,7,8,9,10,11,12,13,14,15,16,17,18,19-tetradecahydro-[1,3]dioxolo[4′,5′:4,5]benzo[1,2-p][1]oxa[4,7,10,14]tetraazacycloheptadecine-17-carboxamide] | 398 nM | 118%
9 | COc1cc2c(cc1OC)C(=O)N[C@H](C(=O)NCCc1ccc3c(c1)OCCN3C)CC(=O)N(C)[C@@H](CC(C)C)C(=O)N(C)CC(=O)N[C@H](Cc1ccccc1)CO2 [Example 8, (3R,9S,13S)-3-benzyl-9-isobutyl-17,18-dimethoxy-7,10-dimethyl-N-(2-(4-methyl-3,4-dihydro-2H-benzo[b][1,4]oxazin-7-yl)ethyl)-5,8,11,15-tetraoxo-2,3,4,5,6,7,8,9,10,11,12,13,14,15-tetradecahydrobenzo[p][1]oxa[4,7,10,14]tetraazacycloheptadecine-13-carboxamide] | 887 nM | 210%
10 | COc1cccc(CCNC(=O)[C@@H]2CC(=O)N(C)[C@@H](CC(C)C)C(=O)N3CCCC[C@@H]3C(=O)N[C@H](Cc3ccccc3)COc3ccc4ncn(C)c4c3C(=O)N2)c1 [Example 17, (8S,12S,18aR,21R)-21-benzyl-12-isobutyl-N-(3-methoxyphenethyl)-5,11-dimethyl-6,10,13,19-tetraoxo-6,7,8,9,10,11,12,13,16,17,18,18a,19,20,21,22-hexadecahydro-5H,15H-imidazo[4′,5′:5,6]benzo[1,2-p]pyrido[2,1-f][1]oxa[4,7,10,14]tetraazacycloheptadecine-8-carboxamide] | 466 nM | 180%
11 | COc1cccc2c1C(=O)N[C@H](C(=O)NCCc1cnccn1)CC(=O)N(C)[C@@H](CC(C)C)C(=O)N(CCC1CCCCC1)CC(=O)N[C@H](Cc1ccccc1)CO2 [Example 18, (3R,9S,13S)-3-benzyl-7-(2-cyclohexylethyl)-9-isobutyl-16-methoxy-10-methyl-5,8,11,15-tetraoxo-N-(2-(pyrazin-2-yl)ethyl)-2,3,4,5,6,7,8,9,10,11,12,13,14,15-tetradecahydrobenzo[p][1]oxa[4,7,10,14]tetraazacycloheptadecine-13-carboxamide] | 388 nM | 117%
12 | COc1cccc2c1C(=O)N[C@H](C(=O)NCCc1ccncn1)CC(=O)N(C)[C@@H](CC(C)C)C(=O)N(CCC1CCCCC1)CC(=O)N[C@H](Cc1ccccc1)CO2 [Example 19, (3R,9S,13S)-3-benzyl-7-(2-cyclohexylethyl)-9-isobutyl-16-methoxy-10-methyl-5,8,11,15-tetraoxo-N-(2-(pyrimidin-4-yl)ethyl)-2,3,4,5,6,7,8,9,10,11,12,13,14,15-tetradecahydrobenzo[p][1]oxa[4,7,10,14]tetraazacycloheptadecine-13-carboxamide] | 743 nM | 125%
